Active and inactive are the calls of the source. The calls are words filed in the database; no cut-off is given here.
What was measured:
Hepatitis C virus [1] = experiment: Inhibition of HCV1b NS5B polymerase after 2 hrs by RdRp activity assay; set-up: species or system Hepatitis C virus subtype 1b
Hepatitis C virus [2] = experiment: Inhibition of HCV1b NS5B polymerase at 100 uM after 2 hrs by RdRp activity assay; set-up: species or system Hepatitis C virus subtype 1b
Hepatitis C virus [3] = experiment: Inhibition of HCV1b NS5B polymerase assessed as [alpha-32P]UTP incorporation by non-competitive double reciprocal plot; details: Hepatitis C virus subtype 1b

| SMILES | IC50 (Hepatitis C virus [1]) [µM] | inhibition at 100 µM (Hepatitis C virus [2]) [%] | Activity (Hepatitis C virus [3]) |
| --- | --- | --- | --- |
| Nc1ncnc2c1ncn2/C=C/C(=O)c1ccco1 | 20 | > 80 | Active |
| Nc1ncnc2c1ncn2/C=C/C(=O)c1ccccc1 | 20 | > 80 | Active |
| O=C(Nc1cccn(Cc2ccc(Cl)c(Cl)c2)c1=O)Sc1cccc(C(F)(F)F)c1 | 20 | > 80 | Active |
